Source: ChEMBL document CHEMBL1127232, “Synthesis and vasorelaxant activity of N-imino-2-(benzopyran-4-yl)pyridine K+ channel openers” (Bioorg Med Chem Lett, 1994)

Legend:
[1] = organism: Rattus norvegicus; assay: Intrinsic activity in rat aorta was determined; format: functional
[2] = organism: Rattus norvegicus; assay: Negative logarithm of the molar concentration required to relax rat aorta precontracted with 30 mM KCL by 50% of intrinsic activity; format: functional

SMILES | EC50 [2] [nM] | Intrinsic activity [1] [%]
N#Cc1ccc2c(c1)C(c1cccc[n+]1[O-])=CC(CF)(CF)O2 | 16.6 | 71.1
O=[N+]([O-])c1ccc2c(c1)C(c1cccc[n+]1[O-])=CC(CF)(CF)O2 | 1.74 | 66.3
O=C([N-][n+]1ccccc1C1=CC(CF)(CF)Oc2ccc([N+](=O)[O-])cc21)Nc1ccccc1 | 9120 | 89.5
CC1(C)C=C(c2cccc[n+]2[N-]C#N)c2cc(C#N)ccc2O1 | 97.7 | 63.2
O=[N+]([O-])[N-][n+]1ccccc1C1=CC(CF)(CF)Oc2ccc([N+](=O)[O-])cc21 | 1000 | 98.5
O=C([N-][n+]1ccccc1C1=CC(CF)(CF)Oc2ccc([N+](=O)[O-])cc21)c1ccccc1 | > 10000 | –
CC1(C)C=C(c2cccc[n+]2[O-])c2cc(C#N)ccc2O1 | 24.5 | 78.2
CC(=O)[N-][n+]1ccccc1C1=CC(CF)(CF)Oc2ccc([N+](=O)[O-])cc21 | > 10000 | –
CS(=O)(=O)[N-][n+]1ccccc1C1=CC(CF)(CF)Oc2ccc([N+](=O)[O-])cc21 | 3020 | 74.2
CC1(C)Oc2ccc(C#N)cc2[C@@H](N2CCCC2=O)[C@@H]1O [LEVCROMAKALIM] | 162 | 72.5

Second part, led by results:

EC50 [2] [nM] | SMILES | Intrinsic activity [1] [%]
9.55 | N#C[N-][n+]1ccccc1C1=CC(CF)(CF)Oc2ccc(C(F)(F)F)cc21 | 62.3
4.57 | N#C[N-][n+]1ccccc1C1=CC(CF)(CF)Oc2ccc([N+](=O)[O-])cc21 | 72.7
2.95 | N#C[N-][n+]1ccccc1C1=CC(CF)(CF)Oc2ccc(C(F)(F)C(F)(F)F)cc21 | 71.9
17.8 | N#C[N-][n+]1ccccc1C1=CC(CF)(CF)Oc2ccc(C(F)(F)C(F)(F)C(F)(F)F)cc21 | 74.6
51.3 | N#C[N-][n+]1ccccc1C1=CC(CF)(CF)Oc2ccc(C#N)cc21 | 76.9
